Laboratory results: ChEMBL document CHEMBL1142579, “Antineoplastic agents. 527. Synthesis of 7-deoxynarcistatin, 7-deoxy-trans-dihydronarcistatin, and trans-dihydronarcistatin 1(1)” (J Nat Prod, 2005)
In brackets after ≈: the same amount, converted by molar mass.

Experiments:
[1] = Aqueous solubility at 25 degC; type: physicochemical; settings: water
P388 = test: Cytotoxicity against mouse P388 cells; type: functional; settings: read-out: ED50 (the source's name)
BXPC-3 = test: Cytotoxicity against human […] cells; type: functional
MCF7 = test: Cytotoxicity against human MCF7 cells; type: functional
SF-268 = test: Cytotoxicity against human SF-268 cells; type: functional
NCI-H460 = test: Cytotoxicity against human NCI-H460 cells; type: functional
KM-20L2 = test: Cytotoxicity against human KM20L2 cells; type: functional
DU-145 = test: Cytotoxicity against human DU145 cells; type: functional

| solubility [1] | SMILES | EC50 (P388) | GI50 (BXPC-3) | GI50 (MCF7) | GI50 (SF-268) | GI50 (NCI-H460) | GI50 (KM-20L2) | GI50 (DU-145) |
| --- | --- | --- | --- | --- | --- | --- | --- | --- |
| > 190000 µg/mL | O=C1N[C@@H]2C(=C[C@H](O)[C@H]3OP(=O)([O-])O[C@H]32)c2cc3c(cc21)OCO3.[Na+] | 1.7 µg/mL | 5.3 µg/mL | 4 µg/mL | 6.3 µg/mL | 4.7 µg/mL | 5.6 µg/mL | 3.9 µg/mL |
| > 10000 µg/mL | O=C1N[C@@H]2C(=C[C@H](O)[C@H]3OP(=O)([O-])O[C@H]32)c2cc3c(cc21)OCO3.[K+] | 1.4 µg/mL | > 1 µg/mL | > 1 µg/mL | > 1 µg/mL | > 1 µg/mL | > 1 µg/mL | > 1 µg/mL |
| > 10000 µg/mL | O=C1N[C@H]2[C@@H]3OP(=O)([O-])O[C@@H]3[C@@H](O)C[C@@H]2c2cc3c(c(O)c21)OCO3.[Na+] | 0.88 µg/mL | 5.6 µg/mL | 4.6 µg/mL | 8.8 µg/mL | 7.8 µg/mL | 9.6 µg/mL | 5.2 µg/mL |
| > 1000 µg/mL | O=C1N[C@H]2[C@@H]3OP(=O)([O-])O[C@@H]3[C@@H](O)C[C@@H]2c2cc3c(c(O)c21)OCO3.[Li+] | 0.26 µg/mL | > 1 µg/mL | > 1 µg/mL | > 1 µg/mL | > 1 µg/mL | > 1 µg/mL | > 1 µg/mL |
| > 5000 µg/mL | O=C1N[C@H]2[C@@H]3OP(=O)([O-])O[C@@H]3[C@@H](O)C[C@@H]2c2cc3c(cc21)OCO3.[Li+] | 0.39 µg/mL | > 1 µg/mL | > 1 µg/mL | > 1 µg/mL | > 1 µg/mL | > 1 µg/mL | > 1 µg/mL |
| > 1000 µg/mL | O=C1N[C@H]2[C@@H]3OP(=O)([O-])O[C@@H]3[C@@H](O)C[C@@H]2c2cc3c(c(O)c21)OCO3.[K+] | 0.35 µg/mL | > 1 µg/mL | 0.64 µg/mL | > 1 µg/mL | > 1 µg/mL | > 1 µg/mL | 0.54 µg/mL |
| > 10000 µg/mL | O=C1N[C@H]2[C@@H]3OP(=O)([O-])O[C@@H]3[C@@H](O)C[C@@H]2c2cc3c(cc21)OCO3.[Na+] | 1.6 µg/mL | > 10 µg/mL | 7.2 µg/mL | > 10 µg/mL | > 10 µg/mL | > 10 µg/mL | > 10 µg/mL |
| > 10000 µg/mL | O=C1N[C@@H]2C(=C[C@H](O)[C@H]3OP(=O)([O-])O[C@H]32)c2cc3c(cc21)OCO3.[Li+] | 0.42 µg/mL | > 1 µg/mL | > 1 µg/mL | > 1 µg/mL | > 1 µg/mL | > 1 µg/mL | > 1 µg/mL |
| > 5000 µg/mL | O=C1N[C@H]2[C@@H]3OP(=O)([O-])O[C@@H]3[C@@H](O)C[C@@H]2c2cc3c(cc21)OCO3.[K+] | 1.7 µg/mL | > 1 µg/mL | > 1 µg/mL | > 1 µg/mL | > 1 µg/mL | > 1 µg/mL | > 1 µg/mL |

| SMILES | solubility [1] | EC50 (P388) | GI50 (BXPC-3) | GI50 (MCF7) | GI50 (SF-268) | GI50 (NCI-H460) | GI50 (KM-20L2) | GI50 (DU-145) |
| --- | --- | --- | --- | --- | --- | --- | --- | --- |
| O=C1N[C@@H]2C(=C[C@H](O)[C@@H](O)[C@H]2O)c2cc3c(cc21)OCO3 | < 1000 µg/mL | 0.019 µg/mL (≈ 0.0652 µM) | 0.07 µg/mL (≈ 0.24 µM) | 0.046 µg/mL (≈ 0.158 µM) | 0.12 µg/mL (≈ 0.412 µM) | 0.053 µg/mL (≈ 0.182 µM) | 0.084 µg/mL (≈ 0.288 µM) | 0.051 µg/mL (≈ 0.175 µM) |
| O=C1N[C@H]2[C@H](O)[C@H](O)[C@@H](O)C[C@@H]2c2cc3c(c(O)c21)OCO3 | < 1000 µg/mL | 0.0024 µg/mL (≈ 0.00776 µM) | 0.012 µg/mL (≈ 0.0388 µM) | 0.0053 µg/mL (≈ 0.0171 µM) | 0.02 µg/mL (≈ 0.0647 µM) | 0.0092 µg/mL (≈ 0.0297 µM) | 0.015 µg/mL (≈ 0.0485 µM) | 0.0066 µg/mL (≈ 0.0213 µM) |
| O=C1N[C@H]2[C@H](O)[C@H](O)[C@@H](O)C[C@@H]2c2cc3c(cc21)OCO3 | < 1000 µg/mL | 0.029 µg/mL (≈ 0.0989 µM) | 0.046 µg/mL (≈ 0.157 µM) | 0.034 µg/mL (≈ 0.116 µM) | 0.059 µg/mL (≈ 0.201 µM) | 0.043 µg/mL (≈ 0.147 µM) | 0.051 µg/mL (≈ 0.174 µM) | 0.04 µg/mL (≈ 0.136 µM) |
